Read-outs that look alike come from different tables or passages of the source.
Columns and labels:
[1] = tested on: ARPE-19 cells; experiment: Comparative assay No. 2: cytoprotective effect in oxidizing medium (H2O2); assay type: cell-based, human; conditions: for protection against oxidative stress (ATP production): then H2O2 700 μM for 24 hours; for effect on the production of ATP by ARPE-19 cells treated and then exposed to H2O2: summary statement
Description: The cells were then subjected, for 24 hours, to treatment with aqueous hydrogen peroxide solution at 700 μM.

[2] = tested on: ARPE-19 cells; experiment: Comparative assay No. 1: effective doses of taurine and ZnSO4, ARPE-19 cell proliferation; assay type: cell-based, human
Description: (§1) In the assays hereinafter described, the ARPE-19 human retinal pigmented epithelial cell line was used.
(§2) ARPE-19 cells grown in an appropriate medium [mixture of DMEM [Dulbecco's modified Eagle's medium) and Ham's F12 medium] containing 10% of heat-inactivated fetal calf serum; 2 mM glutamine; 0.1 mM of minimum essential medium; a solution of non-essential amino acids and gentamicin sulfate, in 96-well microplates, were exposed to various concentrations of an aqueous hydrogen peroxide solution (H2O2) being toxic for these cells. The cellular levels of ATP were measured using the commercially available assay which measures ATP production, “ATPLite-M”, manufactured by Perkin Elmer, using a multiplate reader from Perkin Elmer Life Sciences, Boston, Mass. This assay is based on the principle that ATP production is dependent on cell viability and that a decrease or increase in ATP reflects a corresponding alteration in cell viability.
In this assay, the effect of taurine or of N-acetylated taurine and of zinc sulfate on ARPE-19 cell proliferation was compared.

[3] = tested on: ARPE-19 cells; experiment: Assay 3: cytoprotective effect of ATA-Zn on cells subjected to various concentrations of H2O2; assay type: cell-based, human; conditions: 10^−8 M, one and a half hours before exposure to H2O2
Description: as §1
(§3) In order to assess the protective role of ATA-Zn with respect to an oxidative stress of the retinal epithelium, the following experimental model was used.
(§4) ARPE-19 cells grown in an appropriate medium [mixture of DMEM [Dulbecco's modified Eagle's medium) and Ham's F12 medium] containing 10% of heat-inactivated fetal calf serum; 2 mM glutamine; 0.1 mM of minimum essential medium; a solution of non-essential amino acids and gentamicin sulfate, in 96-well microplates, were exposed to various concentrations of an aqueous hydrogen peroxide solution (H2O2) being toxic for these cells. The cellular levels of ATP were measured using the commercially available assay which measures ATP production, “ATPLite-M”, manufactured by Perkin Elmer, using a multiplate reader from Perkin Elmer Life Sciences, Boston, Mass. […]
(§5) The protective effect of ATA-Zn was assayed by treating the ARPE-19 cells with ATA-Zn and subsequently exposing them to the aqueous hydrogen peroxide solution. […] The results of these assays are reported in FIGS. 5 to 9, which are graphs showing the ATP production, expressed as a percentage relative to the ATP production by control cells (having received only the carrier) as a function of the concentrations of H2O2, of ATA-Zn or of the comparative substances. […]

[4] = tested on: ARPE-19 cells; experiment: Assay 2: anti-oxidative stress cytoprotective effect, ATP production after H2O2; assay type: cell-based, human; conditions: 1.5 hours before H2O2 700 μm
Description: as §1, §3, §2
The protective effect of ATA-Zn was assayed by treating the ARPE-19 cells with ATA-Zn and subsequently exposing them to the aqueous hydrogen peroxide solution. Various exposure times and various doses were used. Comparative assays were also carried out. The results of these assays are reported in FIGS. 5 to 9, which are graphs showing the ATP production, expressed as a percentage relative to the ATP production by control cells (having received only the carrier) as a function of the concentrations of H2O2, of ATA-Zn or of the comparative substances.
In this assay, the concentrations of ATA-Zn which induce a significant ATP production via the ARPE-19 cells were used, and then, after 1.5 hours, the cells were subjected to a treatment with H2O2 at the toxic dose of 700 μm.

[5] = tested on: ARPE-19 cells; experiment: Assay 1: effective doses of ATA-Zn and its toxicity, ATP production (ATPLite-M); assay type: cell-based, human; conditions: 24 hours after addition
Description: as §1, §4
The ARPE-19 cells were treated with various concentrations of ATA-Zn (10^−3 to 10^−9 M) dissolved in a carrier consisting of a serum-free culture medium containing 0.01% of DMSO (concentration known not to affect cell viability). The ATP production by the ARPE-19 cells thus treated was determined 24 hours after the addition of ATA-Zn. The ATP production by control cells treated only with the serum-free culture medium containing 0.01% of DMSO (carrier) was also determined.

[6] = Solubility of the prepared product; assay type: physicochemical; conditions: white powder
[7] = tested on: ARPE-19 cells; experiment: Comparative assay No. 3: comparison with the known antioxidants DHA, lutein and zeaxanthin; assay type: cell-based, human
Description: as §1, §2, §5

[8] = tested on: lipofuscin accumulation; experiment: Intracellular accumulation of lipofuscin in retina, prostate and hippocampus of aged rats (fluorescence image analysis); assay type: in vivo, Sprague-Dawley albino rats; conditions: 40 mg/kg per os once a day for 4 weeks, vs control animals (carrier)
Description: The activity of ATA-Zn on aging was measured by determining the amount of lipofuscin in certain tissues in aged rats (retina, prostate and hippocampus).
Male Sprague-Dawley albino rats, aged 16 months, were placed in standard plastic cages, in groups of 5, with water and food ad libitum. The living conditions of the animals were the following: day:night light cycle, 12:12 h, constant temperature of 22±2° C. and relative humidity of 60%.
For the chronic treatment, ATA-Zn was administered to the rats, per os, once a day, for 4 weeks, at the dose of 40 mg/kg (n=6). The control animals received only water (carrier) for the same period of time (n=6). 24 hours after the end of the treatment, the rats were anesthetized with equithesin ([…], i.p.) and perfused transcardially with 1% paraformaldehyde and 1.25% glutaraldehyde in a 0.1% sodium cacodylate buffer (pH 7.4) obtained from arsenous anhydride and potassium acetate.
The samples of the tissues taken (retina, prostate and hippocampus) were then cut into small pieces (1 mm^3) on a cryostat and added to a mixture of formaldehyde and glutaraldehyde in a cacodylate buffer for 2 hours. The samples were then mixed with osmium tetroxide, dehydrated in increasing concentrations of acetone and toluene and, finally, embedded into blocks of resin (EPON resin). The pieces of tissues thus processed were examined under an Olympus BX-60 fluorescence microscope.
The fluorescence in all the tissues was quantified using an image analysis system (KS 300; Karl Zeiss). The analysis was carried out by measuring the percentage surface area hidden by the presence of fluorescence and compared with a standard zone of 2000 μm^2 (lipofuscin fluorescence expressed as % surface area relative to the standard zone) using an ×40 objective magnification and a Zeiss Sound Vision digital microscope video camera (total enlargement on the computer screen ×7500). The values measured in the areas with no fluorescence in the pieces of tissues were subtracted, as background noise, from the resulting binary image. […]

Compound: NCCS(=O)(=O)O [taurine]
- protection against oxidative stress (ATP production) ([1]; pretreatment): not capable of protecting the cells
- effect on the production of ATP by ARPE-19 cells treated and then exposed to H2O2 [1]: no effect
- proliferative effect on the ARPE-19 cells ([2]; 2 mM and 10^−8 M): neither zinc sulfate nor taurine at the various concentrations used were capable of inducing a significant proliferative effect

Compound: O=S(=O)([O-])[O-].[Zn+2] [zinc sulfate]
- protection against oxidative stress (ATP production) ([1]; 30 μM pretreatment): not capable of protecting the cells
- protection against oxidative stress (ATP production) ([1]; 10^−8 M pretreatment): protective effect which is less than that of ATA-Zn
- effect on the production of ATP by ARPE-19 cells treated and then exposed to H2O2 [1]: no effect
- proliferative effect on the ARPE-19 cells ([2]; 30 μM and 10^−8 M): neither zinc sulfate nor taurine at the various concentrations used were capable of inducing a significant proliferative effect

Compound: zinc N-acetyltaurinate [ATA-Zn]
- protection against oxidative stress (ATP production) ([1]; pretreatment): protect the ARPE-19 cells against oxidative stress
- effect on the production of ATP by ARPE-19 cells treated and then exposed to H2O2 [1]: has an effect
- protection against oxidative stress induced by various concentrations of H2O2 (ATP production) [3]: capable of protecting the ARPE-19 cells against oxidative stress
- protection against oxidative stress (ATP production) ([4]; 10^−7 M): potentiates the toxic effect of H2O2
- protection against oxidative stress (ATP production) ([4]; 10^−8 M): capable of protecting the cells against oxidative stress
- protection against oxidative stress (ATP production) ([4]; 10^−9 M): not effective
- ATP production / cell viability (toxicity) ([5]; 10^−3 M): toxic
- ATP production / cell viability ([5]; 10^−9 M, 10^−8 M and 10^−7 M): capable of inducing an increase in cell viability
- solubility in ethanol [6]: poorly soluble in ethanol
- solubility in water [6]: soluble in water
- effect on ATP production compared with DHA, lutein and zeaxanthin [7]: effect comparable to the known antioxidants
- effect on ATP production compared with DHA, lutein and zeaxanthin ([7]; listed as zinc N-acetyltaurinate): virtually identical to or even greater than
- lipofuscin fluorescence (% surface area) in the hippocampus [8]: significant reduction
- lipofuscin fluorescence (% surface area) in the prostate [8]: significant reduction
- lipofuscin fluorescence (% surface area) in the retina [8]: significant reduction
